Reference: paper PMC6099706, “Anti-Mycobacterium tuberculosis Activity of Esters of Quinoxaline 1,4-Di-N-Oxide” (Molecules : A Journal of Synthetic Chemistry and Natural …, 2018)
≈ marks a conversion by molar mass, not a printed value.

Tests used:
[1] = tested on: nonreplicating persistent (NRP) M. tuberculosis strain; test: microbe, parasite or virus in culture; assay type: cell-based, Mycobacterium tuberculosis; conditions: for MIC: Mycobacterium tuberculosis, read-out: LORA MIC; for LORA percentage in parentheses after the MIC bound: meaning not defined in the paper, printed beside the highest concentration
[2] = molecular target: M. tuberculosis gyrase (GyrA and Gyr B subunits) (Mycobacterium tuberculosis, UniProt P9WG45+P9WG47); test: M. tuberculosis gyrase supercoiling assay; assay type: biochemical; conditions: at 50 μM
Sequence of M. tuberculosis gyrase (GyrA and Gyr B subunits) (P9WG45 whole entry): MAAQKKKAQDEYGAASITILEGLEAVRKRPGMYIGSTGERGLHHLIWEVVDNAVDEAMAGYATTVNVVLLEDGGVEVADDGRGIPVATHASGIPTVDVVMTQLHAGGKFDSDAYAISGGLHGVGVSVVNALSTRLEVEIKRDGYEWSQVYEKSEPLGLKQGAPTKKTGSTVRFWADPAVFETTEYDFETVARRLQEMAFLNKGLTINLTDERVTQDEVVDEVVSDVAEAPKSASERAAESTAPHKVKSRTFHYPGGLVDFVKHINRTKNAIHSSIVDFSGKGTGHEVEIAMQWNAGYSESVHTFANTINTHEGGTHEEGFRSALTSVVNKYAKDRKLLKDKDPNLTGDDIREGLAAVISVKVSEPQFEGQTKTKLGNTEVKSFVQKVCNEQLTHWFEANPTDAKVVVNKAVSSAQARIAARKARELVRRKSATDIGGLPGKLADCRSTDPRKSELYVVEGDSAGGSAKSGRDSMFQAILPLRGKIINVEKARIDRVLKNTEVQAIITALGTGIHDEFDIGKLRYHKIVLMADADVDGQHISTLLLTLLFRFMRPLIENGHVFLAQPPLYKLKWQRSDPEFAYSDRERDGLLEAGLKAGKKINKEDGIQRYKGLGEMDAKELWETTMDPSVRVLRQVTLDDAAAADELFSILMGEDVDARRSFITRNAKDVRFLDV
Sequence of M. tuberculosis gyrase (GyrA and Gyr B subunits) (P9WG47 whole entry): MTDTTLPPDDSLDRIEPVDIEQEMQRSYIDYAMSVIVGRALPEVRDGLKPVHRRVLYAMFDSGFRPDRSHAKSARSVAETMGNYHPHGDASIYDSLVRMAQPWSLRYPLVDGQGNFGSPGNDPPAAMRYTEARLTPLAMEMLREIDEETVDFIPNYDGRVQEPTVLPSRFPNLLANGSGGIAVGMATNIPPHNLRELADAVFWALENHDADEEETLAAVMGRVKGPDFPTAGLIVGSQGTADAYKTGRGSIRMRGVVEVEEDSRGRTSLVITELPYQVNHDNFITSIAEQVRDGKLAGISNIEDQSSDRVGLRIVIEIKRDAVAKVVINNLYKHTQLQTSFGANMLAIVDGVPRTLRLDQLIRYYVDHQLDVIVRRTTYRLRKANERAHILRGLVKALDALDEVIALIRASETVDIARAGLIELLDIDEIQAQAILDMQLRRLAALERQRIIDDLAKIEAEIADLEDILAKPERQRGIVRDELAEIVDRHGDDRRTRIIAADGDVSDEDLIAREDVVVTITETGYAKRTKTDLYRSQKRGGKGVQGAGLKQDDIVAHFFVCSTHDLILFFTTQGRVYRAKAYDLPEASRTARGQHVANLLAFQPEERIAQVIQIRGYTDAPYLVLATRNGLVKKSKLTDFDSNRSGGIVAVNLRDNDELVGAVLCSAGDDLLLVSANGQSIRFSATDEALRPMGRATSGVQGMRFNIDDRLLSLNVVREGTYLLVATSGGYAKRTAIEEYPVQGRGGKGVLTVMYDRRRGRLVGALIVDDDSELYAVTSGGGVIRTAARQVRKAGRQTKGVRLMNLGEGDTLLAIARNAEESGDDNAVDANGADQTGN
Method: The activity of the enzyme was determined prior to the testing of the quinoxaline 1,4-di-N-oxide derivatives and 1 U was defined as the amount of enzyme required to just fully supercoil the substrate under test conditions. Compounds were tested at 50 μM. Final DMSO concentration in the assays was 1% (v/v).
1 U of M. tuberculosis gyrase (GyrA and Gyr B subunits) (final concentration in assay 50 nM) was incubated with 0.5 μg of relaxed pBR322 DNA in a 30 μL reaction at 37 °C for 30 min under the following conditions: 50 mM HEPES. KOH (pH 7.9), 6 mM magnesium acetate, 4 mM DTT, 1 mM ATP, 100 mM potassium glutamate, 2 mM spermidine and 0.05 mg/mL albumin.
Each reaction was stopped by the addition of 30 μL chloroform/iso-amyl alcohol (26:1) and 20 μL Stop Dye (40% sucrose, 100 mM Tris.HCl (pH 7.5), 10 mM EDTA, 0.5 μg/mL bromophenol blue), before being loaded on a 1.0% TAE (Tris.acetate […], EDTA […]) gel run at 80 V for 2 h.
Bands were visualized by ethidium staining for 10 min, destained for 10 min in water, analyzed by gel documentation equipment (Syngene, Cambridge, UK), and quantified using Syngene software (Genetools version 4.00 (1997–1998), Syngene, A division of Synoptics Corp, Cambridge, UK).
Raw gel data (fluorescent band volumes) collected from Syngene’s GeneTools gel analysis software were converted to a % of the 100% control (the supercoiled enzyme plus DMSO control DNA band). These were analyzed using SigmaPlot Version 13.0 (Systat Software Inc., London, UK; 2016).

[3] = tested on: Mycobacterium tuberculosis strain H37Rv; test: microplate Alamar blue assay (MABA); assay type: cell-based; conditions: for MIC: Mycobacterium tuberculosis, H37RV; for MIC / MABA MIC: M. tuberculosis H37Rv, lowest concentration effecting 90% inhibition; for MABA percentage in parentheses after the MIC bound: meaning not defined in the paper, printed beside the highest concentration
M. tb H37Rv = test: MIC on M. tb H37Rv (Table 4 panel); assay type: cell-based; conditions: Mycobacterium tuberculosis
[4] = nonreplicating persistent strain

SMILES	MIC [1, 4]	MIC [3]	also measured
COC(=O)c1ccc2c(c1)[n+]([O-])c(C(=O)c1ccccc1)c(C)[n+]2[O-] [Compound T-003]	1.49 µg/mL (≈ 4.4 µM)	3.47 µg/mL (≈ 10.3 µM)	inhibitory effect on M. tuberculosis gyrase supercoiling [2]: none of the compounds showed an inhibitory effect
CCOC(=O)c1ccc2c(c1)[n+]([O-])c(C(=O)c1ccccc1)c(C)[n+]2[O-] [Compound T-004]	0.61 µg/mL (≈ 1.73 µM)	2.32 µg/mL (≈ 6.58 µM)	
COC(=O)c1ccc2c(c1)[n+]([O-])c(C(=O)Nc1ccccc1)c(C)[n+]2[O-] [Compound T-012]	0.86 µg/mL (≈ 2.43 µM)	1.07 µg/mL (≈ 3.03 µM)	inhibitory effect on M. tuberculosis gyrase supercoiling [2]: none of the compounds showed an inhibitory effect
CCOC(=O)c1c(C)[n+]([O-])c2ccc(C(=O)OC)cc2[n+]1[O-] [Compound T-013]	0.54 µg/mL (≈ 1.76 µM)	0.47 µg/mL (≈ 1.53 µM)	inhibitory effect on M. tuberculosis gyrase supercoiling [2]: none of the compounds showed an inhibitory effect
COC(=O)c1ccc2no[n+]([O-])c2c1 [Compound T-014]	13 µg/mL (≈ 66.9 µM)	7.6 µg/mL (≈ 39.1 µM)	
CCOC(=O)c1ccc2c(c1)[n+]([O-])c(C(=O)OCC)c(C)[n+]2[O-] [Compound T-015]	0.49 µg/mL (≈ 1.53 µM)	0.5 µg/mL (≈ 1.56 µM)	
CCOC(=O)c1ccc2c(c1)[n+]([O-])c(C(=O)CC)c(C(F)(F)F)[n+]2[O-] [Compound T-026]	2.5 µg/mL (≈ 6.98 µM)	> 22 µg/mL	MABA MIC [3]: 22.5 µg/mL
COC(=O)c1ccc2c(c1)[n+]([O-])c(C(C)=O)c(C)[n+]2[O-] [Compound T-034]	0.7 µg/mL (≈ 2.53 µM)	1.1 µg/mL (≈ 3.98 µM)	
COC(=O)c1cc2c(cc1OC)no[n+]2[O-] [Compound T-036]		> 100 µg/mL	MABA MIC [3]: >128 µg/mL
CCOC(=O)Cc1c(C(=O)OCC)[n+]([O-])c2cc(C(=O)OC)ccc2[n+]1[O-] [Compound T-037]	1.9 µg/mL (≈ 5.02 µM)	1.2 µg/mL (≈ 3.17 µM)	
CCC(=O)c1c(C(F)(F)F)[n+]([O-])c2ccc(C(=O)OC)cc2[n+]1[O-] [Compound T-038]		< 0.4 µg/mL	inhibitory effect on M. tuberculosis gyrase supercoiling [2]: none of the compounds showed an inhibitory effect
COC(=O)c1ccc2c(c1)[n+]([O-])c(C(=O)C(C)C)c(C(F)(F)F)[n+]2[O-] [Compound T-039]	0.83 µg/mL (≈ 2.32 µM)	1.54 µg/mL (≈ 4.3 µM)	
CCOC(=O)c1c(-c2ccccc2)[n+]([O-])c2ccc(C(=O)OC)cc2[n+]1[O-] [Compound T-042]	0.5 µg/mL (≈ 1.36 µM)	1 µg/mL (≈ 2.71 µM)	
CCOC(=O)c1ccc2c(c1)[n+]([O-])c(C(=O)OCC)c(-c1ccccc1)[n+]2[O-] [Compound T-043]	0.47 µg/mL (≈ 1.23 µM)	0.54 µg/mL (≈ 1.41 µM)	
CCOC(=O)c1ccc2c(c1)[n+]([O-])c(C(N)=O)c(C)[n+]2[O-] [Compound T-045]	100 µg/mL (≈ 344 µM)	> 22 µg/mL	MABA MIC [3]: 29.83 µg/mL
[O-][n+]1onc2ccccc21 [Compound T-046]			LORA MIC [1, 4]: 46.97 µg/mL; MABA MIC [3]: 58.5 µg/mL
CC(C)OC(=O)c1ccc2no[n+]([O-])c2c1 [Compound T-063]	3.04 µg/mL (≈ 13.7 µM)	1.4 µg/mL (≈ 6.3 µM)	
COC(=O)c1c(C)[n+]([O-])c2ccc(C(=O)OC(C)C)cc2[n+]1[O-] [Compound T-064]	0.56 µg/mL (≈ 1.75 µM)	0.58 µg/mL (≈ 1.81 µM)	inhibitory effect on M. tuberculosis gyrase supercoiling [2]: none of the compounds showed an inhibitory effect
CCOC(=O)c1c(C)[n+]([O-])c2ccc(C(=O)OC(C)C)cc2[n+]1[O-] [Compound T-065]	0.5 µg/mL (≈ 1.5 µM)	0.7 µg/mL (≈ 2.09 µM)	
Cc1c(C(=O)OC(C)(C)C)[n+]([O-])c2cc(C(=O)OC(C)C)ccc2[n+]1[O-] [Compound T-066]	> 100 µg/mL	68.6 µg/mL (≈ 189 µM)	LORA percentage in parentheses after the MIC bound [1]: 77%
CCOC(=O)Cc1c(C(=O)OCC)[n+]([O-])c2cc(C(=O)OC(C)C)ccc2[n+]1[O-] [Compound T-067]	2.47 µg/mL (≈ 6.08 µM)	3.41 µg/mL (≈ 8.39 µM)	
CC(=O)c1c(C(F)(F)F)[n+]([O-])c2ccc(C(=O)OC(C)C)cc2[n+]1[O-] [Compound T-070]	0.24 µg/mL (≈ 0.67 µM)	≤ 0.15 µg/mL	

SMILES	MIC [1, 4]	MIC [3]	also measured
CC(C)OC(=O)c1ccc2c(c1)[n+]([O-])c(C(=O)c1ccccc1)c(C(F)(F)F)[n+]2[O-] [Compound T-071]	0.64 µg/mL (≈ 1.52 µM)	1.19 µg/mL (≈ 2.83 µM)	
CC(C)OC(=O)c1ccc2c(c1)[n+]([O-])c(C(=O)c1ccco1)c(C(F)(F)F)[n+]2[O-] [Compound T-073]	0.6 µg/mL (≈ 1.46 µM)	0.7 µg/mL (≈ 1.71 µM)	
CCCOC(=O)c1ccc2no[n+]([O-])c2c1 [Compound T-074]	4.62 µg/mL (≈ 20.8 µM)	0.87 µg/mL (≈ 3.92 µM)	
CC(=O)c1c(C)[n+]([O-])c2ccc(C(=O)OC(C)C)cc2[n+]1[O-] [Compound T-084]	0.6 µg/mL (≈ 1.97 µM)	0.8 µg/mL (≈ 2.63 µM)	
CCCOC(=O)c1ccc2c(c1)[n+]([O-])c(C(=O)OCC)c(C)[n+]2[O-] [Compound T-090]		0.8 µg/mL (≈ 2.39 µM)	
CCCOC(=O)c1ccc2c(c1)[n+]([O-])c(C(=O)C(C)(C)C)c(C)[n+]2[O-] [Compound T-091]		> 100 µg/mL	MABA percentage in parentheses after the MIC bound [3]: 33%
Cc1c(C(=O)Nc2ccccc2)[n+]([O-])c2cc(C(=O)OC(C)C)ccc2[n+]1[O-] [Compound T-097]	> 20 µg/mL	> 20 µg/mL	LORA percentage in parentheses after the MIC bound [1]: 33%; MABA percentage in parentheses after the MIC bound [3]: 6%
Cc1c(C(=O)c2ccccc2)[n+]([O-])c2cc(C(=O)OC(C)C)ccc2[n+]1[O-] [Compound T-098]	2.87 µg/mL (≈ 7.83 µM)	4.59 µg/mL (≈ 12.5 µM)	
CC(C)OC(=O)c1ccc2c(c1)[n+]([O-])c(C(=O)C(C)(C)C)c(C(C)(C)C)[n+]2[O-] [Compound T-107]		2.1 µg/mL (≈ 5.41 µM)	
Cc1c(C(N)=O)[n+]([O-])c2cc(C(=O)OC(C)C)ccc2[n+]1[O-] [Compound T-108]		22.5 µg/mL (≈ 73.7 µM)	inhibitory effect on M. tuberculosis gyrase supercoiling [2]: none of the compounds showed an inhibitory effect
CCCOC(=O)c1ccc2c(c1)[n+]([O-])c(C(=O)C(C)C)c(C(F)(F)F)[n+]2[O-] [Compound T-111]		1.5 µg/mL (≈ 3.88 µM)	
CCCOC(=O)c1ccc2c(c1)[n+]([O-])c(C(=O)OCC)c(C(=O)C(=O)OCC)[n+]2[O-] [Compound T-112]		1.4 µg/mL (≈ 3.33 µM)	
CCCOC(=O)c1ccc2c(c1)[n+]([O-])c(C(C)=O)c(C(F)(F)F)[n+]2[O-] [Compound T-113]		3 µg/mL (≈ 8.37 µM)	
CCCOC(=O)c1ccc2c(c1)[n+]([O-])c(C(=O)c1ccco1)c(C(F)(F)F)[n+]2[O-] [Compound T-114]		2.9 µg/mL (≈ 7.07 µM)	inhibitory effect on M. tuberculosis gyrase supercoiling [2]: none of the compounds showed an inhibitory effect
CCCOC(=O)c1ccc2c(c1)[n+]([O-])c(C(=O)c1ccccc1)c(C(F)(F)F)[n+]2[O-] [Compound T-115]		1.5 µg/mL (≈ 3.57 µM)	
CCCOC(=O)c1ccc2c(c1)[n+]([O-])c(C(=O)OCC)c(C(F)(F)F)[n+]2[O-] [Compound T-124]		3 µg/mL (≈ 7.73 µM)	
CCCOC(=O)c1ccc2c(c1)[n+]([O-])c(C(=O)Nc1ccccc1)c(C)[n+]2[O-] [Compound T-125]		12.3 µg/mL (≈ 32.3 µM)	inhibitory effect on M. tuberculosis gyrase supercoiling [2]: none of the compounds showed an inhibitory effect
CCCOC(=O)c1ccc2c(c1)[n+]([O-])c(C(C)=O)c(C)[n+]2[O-] [Compound T-126]		3 µg/mL (≈ 9.86 µM)	
CCCOC(=O)c1ccc2c(c1)[n+]([O-])c(C(N)=O)c(C)[n+]2[O-] [Compound T-130]		2.9 µg/mL (≈ 9.5 µM)	
CCCOC(=O)c1ccc2c(c1)[n+]([O-])c(C(=O)c1ccccc1)c(C)[n+]2[O-] [Compound T-132]		2.3 µg/mL (≈ 6.28 µM)	
NNC(=O)c1ccncc1 [INH, isoniazid, reference compound]	> 128 µg/mL	0.12 µg/mL (≈ 0.875 µM)	
CO[C@H]1/C=C/O[C@@]2(C)Oc3c(C)c(O)c4c(O)c(c(/C=N/N5CCN(C)CC5)c(O)c4c3C2=O)NC(=O)/C(C)=C\C=C\[C@H](C)[C@H](O)[C@@H](C)[C@@H](O)[C@@H](C)[C@H](OC(C)=O)[C@@H]1C [RMP, rifampicin, reference compound]	0.89 µg/mL (≈ 1.08 µM)	0.03 µg/mL (≈ 0.0365 µM)	MIC (M. tb H37Rv): < 0.06 µg/mL
